Laboratory results as given in US12653192B2, “Pesticidal compositions” (SYNGENTA CROP PROTECTION AG, priority 2021, dated 2026).
Like-named read-outs stand apart in the source and are kept apart here.

Assay type: physicochemical
Description: The percentage amount of spiropidion remaining at each time interval during the high temperature storage testing was compared to an identical sample stored at −18° C. (100%=amount of spiropidion in the −18° C. sample at respective time interval).

## CCOC(=O)OC1=C(c2c(C)cc(Cl)cc2C)C(=O)N(C)C12CCN(OC)CC2 [Spiropidion, [3-(4-chloro-2,6-dimethyl-phenyl)-8-methoxy-1-methyl-2-oxo-1,8-diazaspiro[4.5]dec-3-en-4-yl]ethyl carbonate]
  chemical degradation of the active ingredient spiropidion: only minimal chemical degradation
1 month
  % Spiropidion remaining: 99%
12 months
  % Spiropidion remaining: 98%
